Experimental data as given in patent US20090304615A1, “TRICYCLIC COMPOUNDS AS MELANOGENESIS MODIFIERS AND USES THEREOF” (priority 2007, published 2009).
Counter-ions that a name gives are not always drawn.

Tested on: cultured murine melanocytes (melan-a)
Assay: Melanin assay in cultured murine melanocytes (melan-a)
Assay type: cell-based
Conditions: Mus musculus, melan-a cells; for IC50: melanin synthesis, read-out: IC50 range; for inhibition at 1 µM / inhibition at 5 µM: melanin formation, 72 hours of incubation
Procedure: The Spectrum Collection library consisting of 2000 drug compounds or natural products was screened to identify novel pigmentation inhibitors or stimulators in cultured murine melanocytes (melan-a). Compounds were dissolved in dimethylsulfoxide (DMSO) to a final concentration of 10 mM. Screening was performed with cultured melanocytes in 24-well plates followed by melanin assay (see below). […] DMSO was used as a negative control and the widely used depigmenting agent, hydroquinone, was used as a positive control on every plate. […] All compounds were added at the indicated final concentrations. Cells were harvested after 72 hours of incubation, and melanin assay was performed. For further test and mechanism of action studies, the compounds were purchased from either Sigma or Microsoure. These compounds were dissolved in dimethylsulfoxide (DMSO) to a final concentration of 10 mM, and were tested for their effect on melanin synthesis at the indicated final concentrations. For the primary and secondary screening, cells were harvested and dissolved in 200 μl of 2N NaOH in 20% DMSO at 70° C. A 180-μl aliquot of the resulting solution was measured for absorbance at 490 nm. […] The lysates were centrifuged at 14,000 rpm for 10 minutes at 4° C. BCA protein assay kit (Pierce) was used to measure the protein concentrations of the supernatants, and bovine serum albumin was used as a standard. […] A 180-μl aliquot of the resulting solution was measured for absorbance at 490 nm. The melanin contents were normalized to the total amount of protein.

Compound `CNCCCN1c2ccccc2CCc2ccccc21` [compound 6, Despramine hydrochloride] has an IC50 of 2500 to 5000 nM.
`CN(C)CCC=C1c2ccccc2CCc2ccccc21` [compound 2, Amitriptyline hydrochloride] was tested, and the inhibition at 1 µM was 51%, the inhibition at 5 µM was 65% and the IC50 was less than 1000 nM.
With `CNCCC=C1c2ccccc2CCc2ccccc21` [compound 1, Nortriptyline] the inhibition at 1 µM was 39%, the inhibition at 5 µM was 58% and the IC50 was 1000 to 2500 nM.
`CC(CN(C)C)CN1c2ccccc2CCc2ccccc21` (centres unmarked) [compound 3, Trimpramine maleate] was tested, and the inhibition at 1 µM was 28%, the inhibition at 5 µM was 48% and the IC50 was 1000 to 2500 nM.
`CNCCCC1c2ccccc2C=Cc2ccccc21` [compound 8, Protriptyline hydrochloride] gave an IC50 of 5000 to 10000 nM.
In the case of `CN(C)CCCN1c2ccccc2CCc2ccccc21` [compound 5, Imipramine hydrochloride], the inhibition at 1 µM is reported as 34%, the inhibition at 5 µM is reported as 60% and the IC50 is reported as less than 1000 nM.
